Laboratory results as given in US20110009628A1, “Compounds and Compositions for Modulating Lipid Levels and Methods of Preparing Same” (priority 2009, published 2011).
Where a name gives a salt, the structure may show the parent alone. Marks after values point to notes of the source that are not given here.

Assays:
[1] = system: LDLR mRNA expression in HepG2 cells; test: LDLR mRNA expression in HepG2 cells, Compounds 162 and 163, real-time RT-PCR (Example 13); type: cell-based, human; settings: FIGS. 6A and 6B
Experimental: In FIG. 6A HepG2 cells were exposed to Compounds 162 and 163 at the indicated concentrations (x-axis) for 24 h and plotted against normalized LDLR mRNA levels (fold of control in absence of compound). In FIG. 6B, HepG2 cells were treated with 20 μM of each compound for the indicted times (x-axis) and plotted against normalized LDLR mRNA levels (fold of control at 24 h).
The time- and dose-dependent effects of the enantiomers of Compound 127 (Compounds 162 and 163) on LDLR mRNA expression were examined using quantitative real-time RT-PCR assays (FIGS. 6A and 6B). HepG2 cells were treated with Compound 162 and Compound 163 at indicated concentrations for various times. Total RNA was isolated and […] was used to generate cDNA in a reaction containing random primers and M-MLV at 37° C. for 1 h in a volume of 25 μL. Real-time PCR was performed on the cDNA using MCEP REALPLEX 2 SYSTEM (Eppendorf) and Universal MasterMix (Applied Biosystems). Human LDLR and GAPDH Pre-Developed TaqMan Assay Reagents (Applied Biosystems) were used to assess the levels of mRNA expressions in HepG2. The levels of LDLR mRNA were normalized to that of GAPDH. Each RNA samples was assayed in triplicate. The fold activity was calculated by dividing mRNA abundance in compound treated cells with that of control.

liver LDLR mRNA = test: Liver LDLR mRNA in treated hamsters, quantitative real-time RT-PCR; type: in vivo, hamster; settings: 100 mg/kg, 2 weeks, 10 animals per group, p<0.001
Experimental: To directly correlate the LDL-C and VLDL-C lowering effects of Compound 162 with its ability to upregulate hepatic LDLR expression and down-regulation of PCSK9, at the end of treatment, animals from vehicle and Compound 162 100 mg/kg treated groups were euthanized and levels of liver LDLR and PCSK9 mRNA were individually assessed by quantitative real-time RT-PCR using hamster specific probes. The results represent mean±SEM of 10 animals per group. The liver expression of LDLR mRNA was increased 1.7-fold over control by Compound 162 treatment (p<0.001). […] Thus, these in vivo data confirmed the in vitro effects of Compound 162 in upregulating LDLR mRNA while inhibiting PCSK9 mRNA expressions.

in vivo = test: in vivo; design: species or system Golden Syrian hamsters; settings: male, Golden Syrian, hamster, po
Experimental: For testing the efficacy of Compound 141 (phosphate salt of Compound 127) or its enantiomers (Compound 162/Compound 163) the following suspension formulation procedure was developed to make 100 ml of Compound 141 in suspension at 10 mg/ml concentration in 0.1 M tartaric buffer pH. 3 containing 0.5% hydroxypropylcellulose H-type (HPC-H):
Step 1: 1.50 g L-(+)-tartaric acid was dissolved in 100 mL water to prepare a tartaric acid solution. The solution was adjusted to pH 3 with 1.2 mL 5N NaOH solution to provide the tartaric acid buffer (100 mM). Step 2: 0.5 g HPC-H powder was added to 10 mL tartaric acid buffer (100 mM) at 50° C. The slurry was stirred for 30 minutes, and then diluted with 90 mL tartaric acid buffer (100 mM) at room temperature to provide 0.5% HPC-H. Agitation was continued until all particles were dissolved and the solution was completely free of gels. Step 3: 1.20 g Compound 141 (or Compound 162 or Compound 163) and 1.20 g mannitol were mixed and ground through a 120 mesh sieve, then the mixture was ground slightly again. The mixture was dispersed in 100 mL 0.5% HPC-H-L-(+)-Tartaric acid buffer (pH=3), then stirred until the drug dispersed evenly. The final pH was 2.6. All the above procedures were completed at room temperature (˜25° C.). The final concentration of Compound 141 was 10 mg/ml after correction of the salt weight.
The pharmacokinetic profile and bioavailability of Compound 141 (phosphate salt of Compound 127) in male Wistar rats following single intravenous (iv) and oral administration (p.o.) were measured according to the procedures of Example 4 and are summarized in Table 11. The pharmacokinetic profile of Compound 162 in male Golden Syrian masters following oral administration (pox) is summarized in Table 12.

Hyperlipidemic Hamsters = test: Serum lipids and biochemistry in hyperlipidemic hamsters on high fat high cholesterol diet, 2 weeks oral Compound 162; type: in vivo, Golden Syrian Hamsters; settings: for ALT / AST / BUN / Bil-T / Creatinine / Glucose / HDL-C / TC / TG: serum, HFHC feeding, n = 10
Experimental: Male hamsters were fed a cholesterol-enriched diet for 14 days before the daily oral feeding of Compound 162 at 30, 60, and 100 mg/kg, or an equal volume of vehicle for 2-weeks. Serum samples were collected after 2 weeks of treatment and analyzed for TC, TG, and HDL-C. The data shown are mean±SEM of 10 hamsters per group (* p<0.05, ** p<0.01 compared to untreated control group).
Male Golden Syrian Hamsters were used as an animal model to examine the in vivo effects of Compound 162 in plasma lipid levels. In one experiment, 40 male hamsters under a high fat and high cholesterol diet were divided into 4 groups of 10 hamsters per group. Group 1 was given vehicle only and groups 2-4 were given Compound 162 at 30, 60, and 100 mg/kg/day by an orogastric tube for 2 weeks. At the end of treatment, hamsters were sacrificed and blood and sera were collected to measure lipid levels and several critical parameters of liver function and kidney function.

[2] = 100 mg/kg, 2 weeks, hamsters, FIG. 8

With `COc1cc2c(cc1OC)C1Cc3ccc(OC)c(OS(=O)(=O)c4cccc(F)c4)c3CN1CC2` (single isomer, unassigned) [Compound 162, 2,3,10-Trimethoxy-5,6,7,8,13,13a-hexahydroisoquinolino[2,1-b]isoquinolin-9-yl 3-fluorobenzenesulfonate phosphate Salt (Enantiomer having positive optical rotation)] the “LDLR mRNA expression” value [1] was “upregulate LDLR mRNA expression”, the “LDLR mRNA expression, comparison of the enantiomers” value [1] was “more active than Compound 163” and the “liver expression of LDLR mRNA” value (liver LDLR mRNA) was 1.7 fold over control. For the same compound, the AUC(0-inf) (in vivo; 15 mg/kg) was 914 ng·h/mL, the AUC(0-t) (in vivo; 15 mg/kg) was 889 ng·h/mL and the Cmax (in vivo; 15 mg/kg) was 195 ng/mL. It also gave an MRT inf (in vivo; 15 mg/kg) of 6.95 h, an MRT last (in vivo; 15 mg/kg) of 6.06 h and a Tmax (in vivo; 15 mg/kg) of 0.5 h. For the same compound, the t1/2z (in vivo; 15 mg/kg) was 5.21 h, the AUC(0-inf) (in vivo; 30 mg/kg) was 2110 ng·h/mL and the AUC(0-t) (in vivo; 30 mg/kg) was 2020 ng·h/mL. For the same compound, the Cmax (in vivo; 30 mg/kg) was 848 ng/mL, the MRT inf (in vivo; 30 mg/kg) was 5.17 h and the MRT last (in vivo; 30 mg/kg) was 3.81 h. The Tmax (in vivo; 30 mg/kg) was 0.5 h, the t1/2z (in vivo; 30 mg/kg) was 6.85 h and the “increase of HDL-C” value (Hyperlipidemic Hamsters; [2]) was 21%. The “reduction of serum TC” value (Hyperlipidemic Hamsters; [2]) was 46%, the “reduction of serum TG” value (Hyperlipidemic Hamsters; [2]) was 63.7% and the “VLDL-C, LDL-C in pooled serum (HPLC lipoprotein profile)” value (Hyperlipidemic Hamsters; 30, 60, 100 mg/kg/day, hamsters fed the HFHC diet, FIGS. 9A and 9B) was “dose-dependently lowered”. For the same compound, the Blood glucose level (Hyperlipidemic Hamsters; hamsters, 2 weeks) was “not changed”, the kidney function (Hyperlipidemic Hamsters; hamsters, 2 weeks) was “improved” and the “serum levels of AST and ALT versus control group” value (Hyperlipidemic Hamsters; hamsters, 2 weeks) was “statistically lower”. It also gave an ALT (Hyperlipidemic Hamsters; 30 mkg, 2 weeks) of 441 ± 401 IU/L, an AST (Hyperlipidemic Hamsters; 30 mkg, 2 weeks) of 202.0 ± 135 IU/L and a BUN (Hyperlipidemic Hamsters; 30 mkg, 2 weeks) of 4.5 ± 0.9 mmol/L. For the same compound, the Bil-T (Hyperlipidemic Hamsters; 30 mkg, 2 weeks) was 0.6 ± 1.0 µmol/L, the Creatinine (Hyperlipidemic Hamsters; 30 mkg, 2 weeks) was 17.8 ± 6.1* umol/L and the Glucose (Hyperlipidemic Hamsters; 30 mkg, 2 weeks) was 3.8 ± 0.8 mmol/L. The HDL-C (Hyperlipidemic Hamsters; 30 mkg, 2 weeks) was 3.9 ± 0.5 mmol/L, the TC (Hyperlipidemic Hamsters; 30 mkg, 2 weeks) was 19.0 ± 10.1 mmol/L and the TG (Hyperlipidemic Hamsters; 30 mkg, 2 weeks) was 9.4 ± 9.2 mmol/L. The ALT (Hyperlipidemic Hamsters; 60 mkg, 2 weeks) was 353 ± 250 IU/L, the AST (Hyperlipidemic Hamsters; 60 mkg, 2 weeks) was 151.5 ± 61 IU/L and the BUN (Hyperlipidemic Hamsters; 60 mkg, 2 weeks) was 5.0 ± 0.7 mmol/L. For the same compound, the Bil-T (Hyperlipidemic Hamsters; 60 mkg, 2 weeks) was 0.3 ± 0.3* umol/L, the Creatinine (Hyperlipidemic Hamsters; 60 mkg, 2 weeks) was 15.7 ± 4.2** umol/L and the Glucose (Hyperlipidemic Hamsters; 60 mkg, 2 weeks) was 5.0 ± 1.0 mmol/L. The HDL-C (Hyperlipidemic Hamsters; 60 mkg, 2 weeks) was 3.9 ± 0.5 mmol/L, the TC (Hyperlipidemic Hamsters; 60 mkg, 2 weeks) was 16.9 ± 8.7* mmol/L and the TG (Hyperlipidemic Hamsters; 60 mkg, 2 weeks) was 7.6 ± 8.1* mmol/L. It also gave an ALT (Hyperlipidemic Hamsters; 100 mkg, 2 weeks) of 376 ± 262 IU/L, an AST (Hyperlipidemic Hamsters; 100 mkg, 2 weeks) of 150.4 ± 42 IU/L and a BUN (Hyperlipidemic Hamsters; 100 mkg, 2 weeks) of 4.8 ± 0.7 mmol/L. The Bil-T (Hyperlipidemic Hamsters; 100 mkg, 2 weeks) was 0.2 ± 0.2* umol/L, the Creatinine (Hyperlipidemic Hamsters; 100 mkg, 2 weeks) was 15.3 ± 3.2** umol/L and the Glucose (Hyperlipidemic Hamsters; 100 mkg, 2 weeks) was 5.0 ± 1.3 mmol/L. For the same compound, the HDL-C (Hyperlipidemic Hamsters; 100 mkg, 2 weeks) was 4.2 ± 0.5** mmol/L, the TC (Hyperlipidemic Hamsters; 100 mkg, 2 weeks) was 16.4 ± 5.8*** mmol/L and the TG (Hyperlipidemic Hamsters; 100 mkg, 2 weeks) was 6.7 ± 5.2* mmol/L.
